Source: patent publication US8722903B2, “Indazole derivatives for the treatment of HSP9O-induced diseases” (Merck Patent GmbH, priority 2006, dated 2014)

Target: T1, Recombinant human HSP90α (Homo sapiens, UniProt P07900)
T1 construct: host or cells: E. coli
Assay: Radioligand filter binding test: competitive inhibition of [3H]17AAG binding to HSP90
Settings: [3H]17AAG 0.08 μM, HSP90 1.5 μg/assay, 22° C., 30 min
Procedure: In the specific case, a radioligand filter binding test is used. The radioligand used here is tritium-labelled 17-allylaminogeldanamycin, [3H]17AAG, This filter binding test allows a targeted search for inhibitors which interfere with the ATP binding site.
Recombinant human HSP90α (E. coli expressed, 95% purity);
HEPES filter buffer (50 mM HEPES, pH 7.0, 5 mM MgCl2, BSA 0.01%) Multiscreen FB (1 μm) filter plate (Millipore, MAFBNOB 50).
The 96-well microtitre filter plates are firstly irrigated and coated with 0.1% of polyethylenimine.
The test is carried out under the following conditions:
Reaction temperature 22° C.
Reaction time: 30 min., shaking at 800 rpm
50 mM HEPES HCl, pH 7.0, 5 mM MgCl2, 0.01% (w/v) of BSA
At the end of the reaction, the supernatant in the filter plate is removed by suction with the aid of a vacuum manifold (Multiscreen Separation System, Millipore), and the filter is washed twice.
The filter plates are then measured in a beta counter (Microbeta, Wallac) with scintillator (Microscint 20, Packard).
“% of control” is determined from the “counts per minutes” values, and the IC-50 value of a compound is calculated therefrom.

IC50 [nM]	SMILES
10 to 1000	CCCCN(C)C(=O)c1cc2c(Cc3cccc(C)c3)n[nH]c2cc1O [Compound A25, 5-(N-Butyl-N-methylaminocarbonyl)-3-(3-methylbenzyl)-6-hydroxy-1H-indazole]
1000 to 10000	CCCCN(C)C(=O)c1cc2c(Cc3ccccc3Cl)n[nH]c2cc1O [Compound A33, 5-(N-Butyl-N-methylaminocarbonyl)-3-(2-chlorobenzyl)-6-hydroxy-1H-indazole]
1000 to 10000	CN(Cc1cccc2c1OCO2)C(=O)c1cc2c(Cc3ccccc3)n[nH]c2cc1O [Compound A30, 5-[N-(Benzo-1,3-dioxol-4-ylmethyl)-N-methylaminocarbonyl]-3-benzyl-6-hydroxy-1H-indazole]
1000 to 10000	CN(Cc1ccccc1)C(=O)c1cc2c(Cc3ccccc3Cl)n[nH]c2cc1O [Compound A32, 5-(N-Benzyl-N-methylaminocarbonyl)-3-(2-chlorobenzyl)-6-hydroxy-1H-indazole]
1000 to 10000	COCCN(C)C(=O)c1cc2c(Cc3ccccc3)n[nH]c2cc1O [Compound A7, 5-[N-(2-Methoxyethyl)-N-methylaminocarbonyl]-3-benzyl-6-hydroxy-1H-indazole]
10 to 1000	CCCCN(C)C(=O)c1cc2c(Cc3cccc(Cl)c3)n[nH]c2cc1O [Compound A39, 5-(N-Butyl-N-methylaminocarbonyl)-3-(3-chlorobenzyl)-6-hydroxy-1H-indazole]
> 10000	COCCN(C)C(=O)c1cc2c(Cc3ccccc3C)n[nH]c2cc1O [Compound A45]
1000 to 10000	CCCCN(C)C(=O)c1cc2c(Cc3ccccc3C)n[nH]c2cc1O [Compound A43, 5-(N-Butyl-N-methylaminocarbonyl)-3-(2-methylbenzyl)-6-hydroxy-1H-indazole]

Continued, compound first:

SMILES	IC50 [nM]
COc1ccc(N(C)C(=O)c2cc3c(Cc4cccc(OC)c4)n[nH]c3cc2O)cc1 [Compound A160, 5-[N-(4-Methoxyphenyl)-N-methylaminocarbonyl]-3-(3-methoxybenzyl)-6-hydroxy-1H-indazole]	10 to 1000
Cc1cccc(Cc2n[nH]c3cc(O)c(C(=O)N(C)Cc4ccc5c(c4)OCCO5)cc23)c1 [Compound A101, 5-[N-(2,3-Dihydrobenzo-1,4-dioxin-6-ylmethyl)-N-methylaminocarbonyl]-3-(3-methylbenzyl)-6-hydroxy-1H-indazole]	10 to 1000
Cc1cccc(Cc2n[nH]c3cc(O)c(C(=O)N(C)c4ccc(CN5CCOCC5)cc4)cc23)c1 [Compound A191, 5-[N-(4-Morpholin-4-ylmethylphenyl)-N-methylaminocarbonyl]-3-(3-methylbenzyl)-6-hydroxy-1H-indazole]	10 to 1000
CCCN(C)C(=O)c1cc2c(Cc3ccc(C)c(C)c3)n[nH]c2cc1O [Compound A73, 5-(N-Propyl-N-methylaminocarbonyl)-3-(3,4-dimethylbenzyl)-6-hydroxy-1H-indazole]	1000 to 10000
CN(Cc1ccccc1)C(=O)c1cc2c(CCc3ccccc3)n[nH]c2cc1O [Compound A181, 5-(N-Benzyl-N-methylaminocarbonyl)-3-phenethyl-6-hydroxy-1H-indazole]	10 to 1000
CCCN(C)C(=O)c1cc2c(Cc3cc(C)cc(F)c3)n[nH]c2cc1O [Compound A52, 5-(N-Propyl-N-methylaminocarbonyl)-3-(3-fluoro-5-methylbenzyl)-6-hydroxy-1H-indazole]	1000 to 10000
Cc1cccc(Cc2n[nH]c3cc(O)c(C(=O)N(C)c4cccc(OC(F)(F)F)c4)cc23)c1 [Compound A154, 5-[N-(3-Trifluoromethoxyphenyl)-N-methylaminocarbonyl]-3-(3-methylbenzyl)-6-hydroxy-1H-indazole]	10 to 1000
CN(C(=O)c1cc2c(CC3CCCC3)n[nH]c2cc1O)c1ccc2c(c1)OCO2 [Compound A260, 5-[N-(Benzo-1,3-dioxol-5-yl)-N-methylaminocarbonyl]-3-cyclopentylmethyl-6-hydroxy-1H-indazole]	10 to 1000
CCCc1n[nH]c2cc(O)c(C(=O)N(C)c3ccc4c(c3)OCO4)cc12 [Compound A175, 5-[N-(Benzo-1,3-dioxol-5-yl)-N-methylaminocarbonyl]-3-propyl-6-hydroxy-1H-indazole]	10 to 1000
